Experimental data: patent US20080279843A1, “Method For Improving Insulin Sensitivity By Administering an Inhibitor of Antitrypsin” (Essential SkinCare, LLC, priority 2003, published 2008)
Entries after “also recorded” stand apart in the source; their conditions may differ.

Experiments:
[1] = biological target: AT (Homo sapiens, UniProt P01009); assay: Prevention of the inhibitory effect of AT on insulin-stimulated glycogen synthesis in differentiated L6 cells (Example 7); format: cell-based; conditions: FIG. 5
Procedure: (§1) Rat L6 skeletal muscle cells were obtained from the American Type Culture Collection, Rockville, Md. L6 cell monolayers were induced to differentiate in Minimal Essential Medium (MEM) containing 2% (v/v) fetal bovine serum (FBS) and 1% (v/v) antibiotic/antimycotic solution. The cells were fed fresh medium every 48 hours. Myoblast differentiation, which occurred by about the 7-9th day, was monitored by phase contrast microscopy. Differentiated L6 cells are widely used models for studying glucose metabolism in the skeletal muscle. The present study was focused on these cells, because skeletal muscle accounts for about 70-80% of total blood glucose metabolism in the human body.
To examine cellular glucose uptake and metabolism, differentiated (attached) cells in 12-well plates were incubated at 37° C. in a CO2 incubator (95% air: 5% CO2) with D-[^14C]glucose (1 μCi/mL) in 2% FBS-containing medium containing 5.5 mM unlabeled glucose for 0.5-6 hours as indicated at the corresponding Figures. […] Cells were washed twice with 3 ml medium to remove traces of medium containing unincorporated radioactivity. […]
Aliquots of the upper and lower phases were taken to scintillation vials to determine the amounts of radiolabeled glucose and total lipids, respectively, by liquid scintillation counting. […] No additional radioactivity could be removed from the well by neutralized 30% KOH. […]

[2] = biological target: AT activity (Homo sapiens, UniProt P01009); conditions: daily oral administration of GF at the 600 mg level; Janciauskiene and Eriksson 1994; cited from earlier work
[3] = tested on: humans; conditions: 600-1200 mg GF once daily, oral, in humans; literature studies; cited from earlier work
[4] = tested on: C57/Black female mice; assay: Glucose tolerance test with insulin and commercial AT (Example 2); format: in vivo; conditions: FIG. 2; fasting (16 h) mice; insulin 0.5 I.U. 15 min before glucose 3 g/kg i.p.
Procedure: C57/Black female mice weighing 22-23 g were fasted for 16 hours. Four animals were used for each of four treatment groups. The first and fourth treatment group received intraperitoneal injections of 1500 μg commercially obtained AT. Exactly 23 hours and 45 minutes after the AT was administered to the first and fourth treatment group, the animals in the first and second treatment group received 0.5 I.U. of insulin. Exactly 15 minutes after the insulin was administered (i.e., 24 hours after the AT was administered to the first treatment group), glucose (3 g/kg) was injected intraperitoneally into the first, second and third treatment groups. Blood samples were taken from the eyes (canthus), and glucose concentrations in whole blood samples were immediately measured with the fast Glucose C test (Wako Chemicals USA Inc., Richmond, Va., USA). The data presented are the mean ±S.D. of four determinations, one with each animal.

[5] = tested on: C57/Black female mice; assay: Glucose tolerance test with insulin and purified AT (Example 3); format: in vivo; conditions: for Glucose level: mice fasted 16 h, glucose 3 g/kg i.p., insulin 0.5 I.U. 15 min before glucose, purified AT 1200 μg i.p. 24 h before glucose, mean ± S.D., n=5
Procedure: C57/Black female mice weighing 23-25 g were fasted for 16 hours. Five animals were used for each of the three treatment groups. The first treatment group received intraperitoneal injections of 1200 μg purified AT, i.e. AT purified by the procedure of Example 1. Exactly 23 hours and 45 minutes after the AT was administered to the first treatment group, the animals in the first and second treatment group received 0.5 I.U. of insulin. Exactly 15 minutes after the insulin was administered (i.e., 24 hours after AT was administered to the first treatment group), glucose (3 g/kg) was injected intraperitoneally into the first, second and third treatment group. Blood samples were immediately measured with the fast Glucose C test (Wako Chemicals Inc. Richmond, Va., USA). The data presented are the mean ±S.D. of five determinations, one with each animal.

[6] = tested on: differentiated rat L6 muscle cells; assay: Cellular uptake of D-[14C]glucose; format: cell-based; conditions: FIG. 3A; 500 nM insulin; incubations for 2-6 hours
Procedure: as §1
(§2) To examine cellular glucose uptake and metabolism, differentiated (attached) cells in 12-well plates were incubated at 37° C. in a CO2 incubator (95% air: 5% CO2) with D-[^14C]glucose (1 μCi/mL) in 2% FBS-containing medium containing 5.5 mM unlabeled glucose for 0.5-6 hours as indicated at the corresponding Figures. At the termination of incubation, the medium was removed. An aliquot of the medium was taken to determine the loss of [^14C]glucose from the medium which corresponds to its uptake by cells. Cells were washed twice with 3 ml medium to remove traces of medium containing unincorporated radioactivity. Ice-cold 99.8% methanol/0.2% water (v/v) mixture (1 ml) was then added to the monolayers and cells were extracted for 2 hours at −20° C. […] The methanol phase (1 ml) and a following 1 ml methanol wash were added to 2 ml chloroform followed by the addition of 3 ml water. Of the resulting two phases (separation was facilitated by brief centrifugation), the lower phase contained the total radiolabeled lipids, while the upper phase contained [^14C]glucose.
(§3) Aliquots of the upper and lower phases were taken to scintillation vials to determine the amounts of radiolabeled glucose and total lipids, respectively, by liquid scintillation counting. Precipitated [^14C]glycogen was suspended in 0.75 ml of 1 M NaOH and transferred to scintillation vial. This procedure was repeated with another 0.75 ml aliquot of NaOH. To neutralize the suspension, […] (approximately 150 μL) was then added to the vials, followed by the addition of 8.5 ml Ecolume (scintillation fluid). While the 1 M NaOH suspension contained some particulate material (mostly protein which was not labeled with radiolabeled glucose), no precipitate remained in the suspension after addition of Ecolume. […] No additional radioactivity could be removed from the well by neutralized 30% KOH.
Three groups of differentiated L6 cells, incubated in 12-well plates in 2% FBS-containing medium, were treated as follows. A first control group ([…]) was untreated. A second group (▴) was treated with 500 nM insulin for 30 min. A third group (▪) was treated first with 0.4 mg/ml of AT followed by an addition of 500 nM insulin for 30 min. Following the addition of D-[^14C]glucose, each group was incubated in the continuous presence of insulin and AT, as described above, for 0.5-6 hours.
Four groups of differentiated L6 cells, incubated in 12-well plates in 2% FBS-containing medium, were treated as follows. A first control group was untreated. A second group was treated with 500 nM insulin for 30 min. A third group was treated with 0.05 to 0.4 mg/ml of AT for 10 min. Finally, a fourth group was treated with 0.05 to 0.4 mg/ml of AT for 10 min followed by the addition of 500 nM insulin for 30 min. […]

[7] = tested on: differentiated rat L6 muscle cells; assay: Synthesis of [14C]glycogen from radiolabeled glucose; format: cell-based; conditions: 500 nM insulin
Procedure: as §1, §2, §3
In some experiments, a published procedure [Huang, D., Cheung, A. T., Parsons, J. T. and Bryer-Ash, M. “Focal adhesion kinase (FAK) regulates insulin-stimulated glycogen synthesis in hepatocytes.” J. Biol. Chem. 277, 18151-18160, (2002)] was used to determine glucose incorporation into glycogen in a method similar to the one described above. After incubations with [^14C] glucose, cells were solubilized with 20% KOH for 2 hours. Lysates were extracted with 8% […], neutralized with 2.0 M HCl, then boiled for 5 min. The total glycogen was precipitated by the addition of 80% ethanol (final concentration) for 2 hours at −20° C. followed by centrifugation at 1100×g for 10 min. This step was repeated.
After the pellets had been re-dissolved in distilled water, the samples were precipitated again using the same method described above, and yielded essentially the same results. In subsequent experiments the initial methanol precipitation method described above was used because it allowed for analysis of cellular glucose, glycogen and lipids from the same sample.
Three groups of differentiated L6 cells, incubated in 12-well plates in 2% FBS-containing medium, were treated as follows. A first control group ([…]) was untreated. A second group (▴) was treated with 500 nM insulin for 30 min. A third group (▪) was treated first with 0.4 mg/ml of AT followed by an addition of 500 nM insulin for 30 min. […]

Chain of AT (P01009 25-418): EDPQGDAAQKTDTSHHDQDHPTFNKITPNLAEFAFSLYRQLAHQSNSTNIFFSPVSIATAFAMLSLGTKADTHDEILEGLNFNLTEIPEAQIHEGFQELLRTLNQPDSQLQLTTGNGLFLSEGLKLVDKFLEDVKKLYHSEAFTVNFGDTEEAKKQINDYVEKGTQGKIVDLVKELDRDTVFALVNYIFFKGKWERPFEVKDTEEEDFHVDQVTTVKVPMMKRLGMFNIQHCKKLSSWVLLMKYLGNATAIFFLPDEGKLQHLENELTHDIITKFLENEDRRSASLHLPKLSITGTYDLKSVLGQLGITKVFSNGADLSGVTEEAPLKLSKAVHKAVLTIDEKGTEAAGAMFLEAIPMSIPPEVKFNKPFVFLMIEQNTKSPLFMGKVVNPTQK
Chain of AT activity (P01009 25-418): as above

Compound | Effect of GF or LCA on the inhibitory effect of AT on insulin-stimulated glycogen synthesis ([1]; 25 mM GF or 50 μM LCA added 60 min prior to AT (0.4 mg/ml), 500 nM insulin, 5 hours) | Effect of GF or LCA on glycogen synthesis in the absence of AT ([1]; 25 mM GF or 50 μM LCA, without AT) | Inhibition of AT activity [2] | Side effects [3] | Effect of insulin on the rise in blood glucose level after glucose [4] | Glucose level ([5]; 0 min) [mM] | Glucose level ([5]; 30 min) | Glucose level ([5]; 60 min) [mM] | Glucose level ([5]; 180 min) [mM] | Glucose level ([5]; 360 min) [mM] | Effect of insulin on the rise in blood glucose level after glucose ([5]; insulin 0.5 I.U. 15 min before glucose 3 g/kg i.p.) | Stimulatory effect of insulin on uptake of D-[14C]glucose compared to untreated cells [6] | Stimulatory effect of insulin on synthesis of [14C]glycogen compared to untreated cells ([7]; FIG. 3B, incubations for 2-6 hours) | Stimulation of synthesis of [14C]glycogen by insulin ([7]; FIG. 5, 5 hours)
Cc1ccc(C)c(OCCCC(C)(C)C(=O)O)c1 [GF, gemfibrozil] | AT had no such inhibitory effect; also recorded: capable of preventing the strong inhibitory effect of AT | Neither GF nor LCA had a significant effect | 30-60% | In none of these studies did GF exert any significant side effects | – | – | – | – | – | – | – | – | – | –
insulin [reference compound] | – | – | – | – | initially strongly inhibited the rise in blood glucose level | 1.7 ± 0.2 | N.D.* (N.D means not detectable (below 1 mM)) | 2.5 ± 0.2 | 3.0 ± 0.3 | 3.3 ± 0.3 | initially strongly inhibited the rise in blood glucose level | approximately doubled; also recorded: more than two-fold stimulatory effects | approximately doubled; also recorded: more than two-fold stimulatory effects | about two-fold
